PubChem BioAssay AID330 (DTP/NCI, 2004)
Several values for one entry are separate records, joined by “and”; a condition that tells them apart may be missing. Equal entries are not always repeated. Inconclusive results and toxic doses are left out. The calls were made as follows: active = survival T/C of 150% or more; inactive = T/C below 125% in these data.

System: P388 leukemia ip, CD2F1 mice, survival T/C
Assay: NCI In Vivo Anticancer Drug Screen. Data for tumor model P388 Leukemia (intraperitoneal) in CD2F1 (CDF1) mice
Conditions: endpoint: median survival time, higher = longer survival
Procedure, shortened: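 Mice carrying the transplanted tumor received test compound or vehicle. Survival was recorded in each group, and the value is the treated-group measurement divided by that of the vehicle-treated control group.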

[1] = dose: 100.0 mg/kg/injection, schedule: Q04DX003 (ip), vehicle: saline with Tween-80
[2] = dose: 200.0 mg/kg/injection, schedule: Q04DX003 (ip), vehicle: saline with Tween-80
[3] = dose: 50.0 mg/kg/injection, schedule: Q01DX009 (ip), vehicle: saline with Tween-80
[4] = dose: 100.0 mg/kg/injection, schedule: Q01DX009 (ip), vehicle: saline with Tween-80
[5] = dose: 50.0 mg/kg/injection, schedule: Q01DX005 (ip), vehicle: saline with Tween-80
[6] = dose: 100.0 mg/kg/injection, schedule: Q01DX005 (ip), vehicle: saline with Tween-80
[7] = dose: 200.0 mg/kg/injection, schedule: Q01DX005 (ip), vehicle: saline with Tween-80
[8] = dose: 25.0 mg/kg/injection, schedule: Q01DX009 (ip), vehicle: Klucel (hydroxypropylcellulose) (HPC)
[9] = dose: 100.0 mg/kg/injection, schedule: Q01DX009 (ip), vehicle: Klucel (hydroxypropylcellulose) (HPC)
[10] = dose: 200.0 mg/kg/injection, schedule: Q01DX009 (ip), vehicle: Klucel (hydroxypropylcellulose) (HPC)

Measured: T/C

C=C(C)[C@H]1CCC23C[C@@H]4C(C[C@H]2C1(C)CCC(=O)O)C4(C)C3 (stereo not given in full)
inactive: dose: 5.5 mg/kg/injection, schedule: Q01DX005 (ip), vehicle: Klucel (hydroxypropylcellulose) (HPC) 100 % of control | dose: 11.0 mg/kg/injection, schedule: Q01DX005 (ip), vehicle: Klucel (hydroxypropylcellulose) (HPC) 106 % of control | dose: 22.0 mg/kg/injection, schedule: Q01DX005 (ip), vehicle: Klucel (hydroxypropylcellulose) (HPC) 100 % of control | dose: 25.0 mg/kg/injection, schedule: Q01DX005 (ip), vehicle: Klucel (hydroxypropylcellulose) (HPC) 91 % of control | dose: 44.0 mg/kg/injection, schedule: Q01DX005 (ip), vehicle: Klucel (hydroxypropylcellulose) (HPC) 100 % of control | dose: 50.0 mg/kg/injection, schedule: Q01DX005 (ip), vehicle: Klucel (hydroxypropylcellulose) (HPC) 100 % of control | dose: 100.0 mg/kg/injection, schedule: Q01DX005 (ip), vehicle: Klucel (hydroxypropylcellulose) (HPC) 91 % of control | dose: 200.0 mg/kg/injection, schedule: Q01DX005 (ip), vehicle: Klucel (hydroxypropylcellulose) (HPC) 91 % of control

O=c1ccc2cc3ccoc3c(OCCCCCCBr)c2o1
inactive: dose: 100.0 mg/kg/injection, schedule: Q04DX002 (ip), vehicle: Klucel (hydroxypropylcellulose) (HPC) 91 % of control | dose: 200.0 mg/kg/injection, schedule: Q04DX002 (ip), vehicle: Klucel (hydroxypropylcellulose) (HPC) 99 % of control | dose: 400.0 mg/kg/injection, schedule: Q04DX002 (ip), vehicle: Klucel (hydroxypropylcellulose) (HPC) 98 % of control

Nc1[nH]c(=S)[nH]c(=O)c1N=Nc1ccccc1
inactive: dose: 100.0 mg/kg/injection, schedule: Q01DX001 (ip), vehicle: saline with Tween-80 98 % of control | dose: 200.0 mg/kg/injection, schedule: Q01DX001 (ip), vehicle: saline with Tween-80 102 % of control | dose: 400.0 mg/kg/injection, schedule: Q01DX001 (ip), vehicle: saline with Tween-80 117 % of control

c1ccc2sc(SN3CCOCC3)nc2c1
inactive: [1] 87 % of control | [2] 100 % of control | dose: 400.0 mg/kg/injection, schedule: Q04DX003 (ip), vehicle: saline with Tween-80 95 % of control

COc1cc(OC)c(NC(=O)Oc2cc(C)c(Br)c(C)c2)cc1Cl
inactive: [3] 91 % of control | [4] 95 % of control | dose: 200.0 mg/kg/injection, schedule: Q01DX009 (ip), vehicle: saline with Tween-80 108 % of control

O=C(CCl)SCc1ccccc1
inactive: [1] 107 % of control | [2] 99 % of control

O=CC(O)C(O)C(O)C(O)C(O)C#CC#CC(O)C(O)C(O)C(O)C(O)C=O (stereo not given)
inactive: dose: 50.0 mg/kg/injection, schedule: Q01DX005 (ip), vehicle: saline 100 % of control | dose: 100.0 mg/kg/injection, schedule: Q01DX005 (ip), vehicle: saline 105 % of control | dose: 200.0 mg/kg/injection, schedule: Q01DX005 (ip), vehicle: saline 92 % of control

Cc1ccccc1N1C(=O)[N+](C)(C)N=C1[O-]
inactive: dose: 100.0 mg/kg/injection, schedule: Q04DX003 (ip), vehicle: saline 109 % of control and 113 % of control | dose: 200.0 mg/kg/injection, schedule: Q04DX003 (ip), vehicle: saline 99 % of control and 113 % of control | dose: 400.0 mg/kg/injection, schedule: Q04DX003 (ip), vehicle: saline 91 % of control

COc1cc2ccc1-c1cc(ccc1O)CC1c3cc4c(cc3CCN1C)Oc1c(OC)cc3c(c1O4)C(C2)N(C)CC3 (stereo not given)
inactive: dose: 7.5 mg/kg/injection, schedule: Q01DX005 (ip), vehicle: Klucel (hydroxypropylcellulose) (HPC) 99 % of control | dose: 15.0 mg/kg/injection, schedule: Q01DX005 (ip), vehicle: Klucel (hydroxypropylcellulose) (HPC) 99 % of control | dose: 30.0 mg/kg/injection, schedule: Q01DX005 (ip), vehicle: Klucel (hydroxypropylcellulose) (HPC) 92 % of control | dose: 60.0 mg/kg/injection, schedule: Q01DX005 (ip), vehicle: Klucel (hydroxypropylcellulose) (HPC) 104 % of control

O=C(O)c1cccc(C(=O)O)c1S(=O)Cc1ccccc1 (stereo not given)
inactive: [5] 102 % of control | [6] 93 % of control | [7] 105 % of control

CCC(C)C(=O)OC1CC2(C)C(c3ccoc3)OC(=O)CC23OC2(C)OC34C(OC(=O)C(C)C)C3(O)C(OC(=O)C5(C)OC5C)C5(C)CC3(O)C(C)(C5CC(=O)OC)C14O2 (stereo not given)
inactive: [8] 93 % of control | dose: 50.0 mg/kg/injection, schedule: Q01DX009 (ip), vehicle: Klucel (hydroxypropylcellulose) (HPC) 104 % of control | [9] 102 % of control | [10] 99 % of control

NC(C(=O)O)c1ccc(CO)cc1 (stereo not given)
inactive: dose: 25.0 mg/kg/injection, schedule: Q01DX009 (ip), vehicle: saline with Tween-80 100 % of control | dose: 50.0 mg/kg/injection, schedule: Q01DX005 (ip), vehicle: water 86 % of control | [3] 86 % of control | dose: 100.0 mg/kg/injection, schedule: Q01DX005 (ip), vehicle: water 107 % of control | [4] 106 % of control | dose: 200.0 mg/kg/injection, schedule: Q01DX005 (ip), vehicle: water 97 % of control

Cc1c2cccc(F)c2c[n+]2ccccc12
inactive: dose: 6.25 mg/kg/injection, schedule: Q01DX009 (ip), vehicle: Klucel (hydroxypropylcellulose) (HPC) 96 % of control | dose: 12.5 mg/kg/injection, schedule: Q01DX009 (ip), vehicle: Klucel (hydroxypropylcellulose) (HPC) 103 % of control | [8] 102 % of control and 113 % of control

O=[N+]([O-])c1ccc(N/N=C/c2ccnc3ccccc23)cc1
inactive: [9] 95 % of control | [10] 86 % of control | dose: 400.0 mg/kg/injection, schedule: Q01DX009 (ip), vehicle: Klucel (hydroxypropylcellulose) (HPC) 95 % of control

O=[N+]([O-])c1csc([N+](=O)[O-])c1
inactive: dose: 9.37 mg/kg/injection, schedule: Q01DX009 (ip), vehicle: saline with Tween-80 109 % of control | dose: 18.75 mg/kg/injection, schedule: Q01DX009 (ip), vehicle: saline with Tween-80 118 % of control | dose: 37.5 mg/kg/injection, schedule: Q01DX009 (ip), vehicle: saline with Tween-80 122 % of control | dose: 75.0 mg/kg/injection, schedule: Q04DX003 (ip), vehicle: saline with Tween-80 100 % of control | dose: 150.0 mg/kg/injection, schedule: Q04DX003 (ip), vehicle: saline with Tween-80 100 % of control | dose: 300.0 mg/kg/injection, schedule: Q04DX003 (ip), vehicle: saline with Tween-80 109 % of control

Cc1cc(O)cc(O)c1C(=O)OC1CC2(C)C3CC(C)(C)CC3C=C(C=O)C12O (stereo not given)
inactive: dose: 1.5 mg/kg/injection, schedule: Q01DX005 (ip), vehicle: Klucel + Tween-80 107 % of control | dose: 3.0 mg/kg/injection, schedule: Q01DX005 (ip), vehicle: Klucel + Tween-80 97 % of control | dose: 6.0 mg/kg/injection, schedule: Q01DX005 (ip), vehicle: Klucel + Tween-80 103 % of control | dose: 12.0 mg/kg/injection, schedule: Q01DX005 (ip), vehicle: Klucel + Tween-80 99 % of control

CC(NNC(=S)N1CCN(c2ccccn2)CC1)c1cc2ccccc2cn1 (stereo not given)
inactive: dose: 12.5 mg/kg/injection, schedule: Q04DX003 (ip), vehicle: Klucel (hydroxypropylcellulose) (HPC) 96 % of control | dose: 25.0 mg/kg/injection, schedule: Q04DX003 (ip), vehicle: Klucel (hydroxypropylcellulose) (HPC) 88 % of control | dose: 50.0 mg/kg/injection, schedule: Q04DX003 (ip), vehicle: Klucel (hydroxypropylcellulose) (HPC) 88 % of control | dose: 400.0 mg/kg/injection, schedule: Q04DX003 (ip), vehicle: Klucel (hydroxypropylcellulose) (HPC) 86 % of control

O=C(Oc1ccc[nH]c1=O)c1ccccc1
inactive: dose: 37.5 mg/kg/injection, schedule: Q01DX009 (ip), vehicle: saline 108 % of control and 98 % of control | dose: 75.0 mg/kg/injection, schedule: Q01DX009 (ip), vehicle: saline 101 % of control and 105 % of control | dose: 150.0 mg/kg/injection, schedule: Q01DX009 (ip), vehicle: saline 107 % of control | dose: 300.0 mg/kg/injection, schedule: Q01DX009 (ip), vehicle: saline 101 % of control and 110 % of control | dose: 600.0 mg/kg/injection, schedule: Q01DX009 (ip), vehicle: saline 101 % of control and 107 % of control

O=C(NN1CCCCC1)NN1CCCCC1
inactive: [5] 101 % of control | [6] 100 % of control | [7] 100 % of control

Cc1noc(NS(=O)(=O)c2ccc(N=c3c4ccccc4n(-c4ccccc4)c4ccccc34)cc2)c1C
inactive: [5] 97 % of control | [6] 100 % of control
